Assay type in all cases: functional, cell-based
The target in data set [1] is T1, Solute carrier organic anion transporter family member 1B1 (Homo sapiens, UniProt Q9Y6L6).
T1 sequence (Q9Y6L6 whole entry): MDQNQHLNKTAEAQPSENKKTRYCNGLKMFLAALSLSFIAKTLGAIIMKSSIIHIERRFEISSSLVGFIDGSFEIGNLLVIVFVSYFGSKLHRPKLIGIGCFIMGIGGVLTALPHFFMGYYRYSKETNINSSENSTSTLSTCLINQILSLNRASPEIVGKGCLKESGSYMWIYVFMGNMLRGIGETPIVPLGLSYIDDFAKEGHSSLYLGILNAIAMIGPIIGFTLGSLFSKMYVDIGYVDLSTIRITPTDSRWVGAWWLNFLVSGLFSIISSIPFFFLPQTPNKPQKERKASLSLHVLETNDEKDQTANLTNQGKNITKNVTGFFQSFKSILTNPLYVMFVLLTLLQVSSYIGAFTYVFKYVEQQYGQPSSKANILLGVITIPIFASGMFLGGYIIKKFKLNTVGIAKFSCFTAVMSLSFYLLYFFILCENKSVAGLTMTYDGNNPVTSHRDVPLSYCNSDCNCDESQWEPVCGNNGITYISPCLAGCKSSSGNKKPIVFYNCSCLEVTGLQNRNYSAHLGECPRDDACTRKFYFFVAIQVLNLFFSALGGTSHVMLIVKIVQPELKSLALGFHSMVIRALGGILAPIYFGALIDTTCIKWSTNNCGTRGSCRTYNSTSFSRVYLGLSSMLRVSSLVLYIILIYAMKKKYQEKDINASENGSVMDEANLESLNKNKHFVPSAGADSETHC
The experiment in a line: (§1) TP_TRANSPORTER: uptake in OATP-C-expressing HEK293 cells.

In data set [2] the target is T2, OATP-C (OATP1B1, SLCO1B1) (Homo sapiens, UniProt Q9Y6L6).
T2 sequence (Q9Y6L6 whole entry): T1 sequence (Q9Y6L6 whole entry)
The experiment in a line: TP_TRANSPORTER: inhibition of E217betaG uptake (DIDS: 50 uM, E217betaG: 1 uM) in OATP-C-expressing HEK293 cells. Set-up: scale not given: the % may be the effect or the level left. The note with it: probe E217betaG (estradiol 17beta-glucuronide), read-out: Activity.

Data set [3] has as its target T1, Solute carrier organic anion transporter family member 1B1. The experiment in a line: TP_TRANSPORTER: inhibition of E217betaG uptake in OATP-C-expressing HEK293 cells.
Substrate in data set [4]: C[C@]12CC[C@@H]3c4ccc(O)cc4CC[C@H]3[C@@H]1CC[C@@H]2O[C@@H]1O[C@H](C(=O)O)[C@@H](O)[C@H](O)[C@H]1O
Described as §1.

Consider `C=CC1=C(C)/C(=C/c2[nH]c(Cc3[nH]c(/C=C4\NC(=O)C(C)=C4C=C)c(C)c3CCC(=O)O[C@@H]3OC(C(=O)O)[C@@H](O)C(O)C3O)c(CCC(=O)O)c2C)NC1=O` (some centres undefined) [BILIRUBIN MONOGLUCURONIDE], for which, in data set [1], the Activity result is “substrate [+]”.
With `O=S(=O)(O)c1cc(N=C=S)ccc1/C=C/c1ccc(NC=S)cc1S(=O)(=O)O`, the activity at 50 µM in data set [2] was determined as 6%.
As to `O=C1OC(c2ccc(O)c(S(=O)(=O)O)c2)(c2ccc(O)c(S(=O)(=O)O)c2)c2c(Br)c(Br)c(Br)c(Br)c21` [SULFOBROMOPHTHALEIN SODIUM], in data set [3], the Ki (as a rule, a measure of affinity in units of concentration, obtained from inhibition or displacement) was determined as 44 nM.

B1: Solute carrier organic anion transporter family member 1B1 (Homo sapiens) (protein)
chain: T1 sequence (Q9Y6L6 whole entry)
For B1, the Km (as a rule, the substrate concentration at which the rate is half of its maximum) in data set [4] was found to be 8.2 µM.
